Measured values reported in patent publication US8952024B2, “Herbicidal pyrimidone derivatives” (E I du Pont de Nemours and Company, priority 2009, dated 2015).

Assays:
Assay in all cases: Test D pre-/postemergence plant response
Assay type in all cases: in vivo
[1] = test system: black mustard (Brassica nigra)
Text: (§1) Seeds of plant species selected from bermudagrass (Cynodon dactylon), Surinam grass (Brachiaria decumbens), large crabgrass (Digitaria sanguinalis), green foxtail (Setaria viridis), goosegrass (Eleusine indica), johnsongrass (Sorghum halepense), kochia (Kochia scoparia), morningglory (pitted morningglory, Ipomoea lacunosa), nutsedge (purple nutsedge, Cyperus rotundus), ragweed (common ragweed, Ambrosia elatior), black mustard (Brassica nigra), guineagrass (Panicum maximum), dallisgrass (Paspalum dilatatum), barnyardgrass (Echinochloa crus-galli), sandbur (southern sandbur, Cenchrus echinatus), sowthistle (common sowthistle, Sonchus oleraceous), prickly sida (Sida spinosa), Italian ryegrass (Lolium multiflorum), purslane (common purslane, Portulaca oleracea), signalgrass (broadleaf signalgrass, Brachiaria platyphylla), groundsel (common groundsel, Senecio vulgaris), chickweed (common chickweed, Stellaria media), dayflower (Virginia (VA) dayflower, Commelina virginica), bluegrass (annual bluegrass, Poa annua), naked crabgrass (Digitaria nuda), itchgrass (Rottboellia cochinchinensis), quackgrass (Elytrigia repens), field bindweed (Convolvulus arvensis), spanishneedles (Bidens bipinnata), mallow (common mallow, Malva sylvestris) and Russian thistle (Salsola kali), were planted into a blend of loam soil and sand and treated preemergence with test chemicals formulated in a non-phytotoxic solvent mixture which included a surfactant. At the same time, plants from these weed species were treated with postemergence applications of the test chemicals formulated in the same manner. Plants ranged in height from 2 to 18 cm (1- to 4-leaf stage) for postemergence treatments.
(§2) Treated plants and controls were maintained in a greenhouse for 14 to 21 days, after which time all species were visually evaluated and compared to controls. Plant response ratings, summarized in Table D, are based on a scale of 0 to 100 where 0 is no effect and 100 is complete control. A dash (-) response means no test result.

kochia (Kochia scoparia) = test system: kochia (Kochia scoparia)
Text: as §1, §2

[2] = test system: prickly sida (Sida spinosa)
Text: as §1, §2

[3] = test system: bermudagrass (Cynodon dactylon)
Text: as §1, §2

[4] = test system: purslane (common purslane, Portulaca oleracea)
Text: as §1, §2

[5] = test system: groundsel (common groundsel, Senecio vulgaris); conditions: Postemergence
Text: as §1, §2

[6] = test system: goosegrass (Eleusine indica)
Text: as §1, §2

[7] = test system: spanishneedles (Bidens bipinnata)
Text: as §1, §2

[8] = test system: nutsedge (purple nutsedge, Cyperus rotundus)
Text: as §1, §2

[9] = test system: chickweed (common chickweed, Stellaria media); conditions: Postemergence
Text: as §1, §2

[10] = test system: green foxtail (Setaria viridis)
Text: as §1, §2

[11] = test system: Russian thistle (Salsola kali)
Text: as §1, §2

[12] = test system: morningglory (pitted morningglory, Ipomoea lacunosa)
Text: as §1, §2

[13] = test system: mallow (common mallow, Malva sylvestris)
Text: as §1, §2

[14] = test system: sowthistle (common sowthistle, Sonchus oleraceous)
Text: as §1, §2

[15] = test system: johnsongrass (Sorghum halepense)
Text: as §1, §2

[16] = test system: field bindweed (Convolvulus arvensis)
Text: as §1, §2

[17] = Postemergence, 16 g ai/ha, scale 0 to 100
[18] = Postemergence, 31 g ai/ha, scale 0 to 100 (0 no effect, 100 complete control)
[19] = Postemergence, 125 g ai/ha, scale 0 to 100 (0 no effect, 100 complete control)
[20] = Postemergence, 62 g ai/ha, scale 0 to 100 (0 no effect, 100 complete control)
[21] = Preemergence, 16 g ai/ha, scale 0 to 100, 0 no effect, 100 complete control
[22] = Preemergence, 31 g ai/ha, scale 0 to 100 (0 no effect, 100 complete control)
[23] = Preemergence, 62 g ai/ha, scale 0 to 100
[24] = Preemergence, 125 g ai/ha, scale 0 to 100
[25] = Postemergence, 31 g ai/ha, scale 0 to 100
[26] = 125 g ai/ha, scale 0 to 100 (0 no effect, 100 complete control)

Cc1c(F)cccc1-n1c(-c2ccccc2)ncc(C(=O)C2=C(O)CCCC2=O)c1=O [Compound 47, 3-(3-fluoro-2-methylphenyl)-5-[(2-hydroxy-6-oxo-1-cyclohexen-1-yl)carbonyl]-2-phenyl-4(3H)-pyrimidinone]
Plant response rating, Black Mustard [1, 17]: 95 | Plant response rating, Black Mustard [1, 18]: 100 | Plant response rating, Black Mustard [1, 19]: 100 | Plant response rating, Black Mustard [1, 20]: 100 | Plant response rating, Black Mustard [1, 21]: 0 | Plant response rating, Black Mustard [1, 22]: 65 | Plant response rating, Black Mustard [1, 23]: 80 | Plant response rating, Black Mustard [1, 24]: 100 | Plant response rating, Kochia (kochia (Kochia scoparia); [17]): 0 | Plant response rating, Kochia (kochia (Kochia scoparia); [25]): 10 | Plant response rating, Kochia (kochia (Kochia scoparia); [19]): 30 | Plant response rating, Kochia (kochia (Kochia scoparia); [20]): 20 | Plant response rating, Kochia (kochia (Kochia scoparia); [21]): 0 | Plant response rating, Kochia (kochia (Kochia scoparia); [22]): 50 | Plant response rating, Kochia (kochia (Kochia scoparia); [23]): 100 | Plant response rating, Kochia (kochia (Kochia scoparia); [24]): 100 | Plant response rating, Prickly Sida [2, 17]: 60 | Plant response rating, Prickly Sida [2, 25]: 70 | Plant response rating, Prickly Sida [2, 19]: 90 | Plant response rating, Prickly Sida [2, 20]: 80 | Plant response rating, Prickly Sida [2, 21]: 0 | Plant response rating, Prickly Sida [2, 22]: 50 | Plant response rating, Prickly Sida [2, 23]: 65 | Plant response rating, Prickly Sida [2, 24]: 100 | Plant response rating, Bermudagrass [3, 17]: 50 | Plant response rating, Bermudagrass [3, 18]: 50 | Plant response rating, Bermudagrass [3, 19]: 90 | Plant response rating, Bermudagrass [3, 20]: 70 | Plant response rating, Bermudagrass [3, 21]: 10 | Plant response rating, Bermudagrass [3, 22]: 25 | Plant response rating, Bermudagrass [3, 23]: 50 | Plant response rating, Bermudagrass [3, 24]: 100 | Plant response rating, Purslane [4, 17]: 20 | Plant response rating, Purslane [4, 25]: 20 | Plant response rating, Purslane [4, 19]: 30 | Plant response rating, Purslane [4, 20]: 30 | Plant response rating, Purslane [4, 21]: 0 | Plant response rating, Purslane [4, 22]: 0 | Plant response rating, Purslane [4, 23]: 95 | Plant response rating, Purslane [4, 24]: 100 | Plant response rating, Groundsel ([5]; 16 g ai/ha, scale 0 to 100): 100 | Plant response rating, Groundsel ([5]; 31 g ai/ha, scale 0 to 100): 100 | Plant response rating, Groundsel [5, 26]: 100 | Plant response rating, Groundsel ([5]; 62 g ai/ha, scale 0 to 100 (0 no effect, 100 complete control)): 100 | Plant response rating, Goosegrass [6, 17]: 40 | Plant response rating, Goosegrass [6, 25]: 65 | Plant response rating, Goosegrass [6, 19]: 65 | Plant response rating, Goosegrass [6, 20]: 65 | Plant response rating, Goosegrass [6, 21]: 0 | Plant response rating, Goosegrass [6, 22]: 0 | Plant response rating, Goosegrass [6, 23]: 5 | Plant response rating, Goosegrass [6, 24]: 75 | Plant response rating, Spanishneedles [7, 17]: 35 | Plant response rating, Spanishneedles [7, 25]: 40 | Plant response rating, Spanishneedles [7, 19]: 70 | Plant response rating, Spanishneedles [7, 20]: 65 | Plant response rating, Spanishneedles [7, 21]: 0 | Plant response rating, Spanishneedles [7, 22]: 95 | Plant response rating, Spanishneedles [7, 24]: 95 | Plant response rating, Spanishneedles ([7]; Preemergence, rate not given, scale 0 to 100, 0 no effect, 100 complete control): 95 | Plant response rating, Nutsedge, Purple [8, 17]: 0 | Plant response rating, Nutsedge, Purple [8, 25]: 0 | Plant response rating, Nutsedge, Purple [8, 19]: 20 | Plant response rating, Nutsedge, Purple [8, 20]: 10 | Plant response rating, Nutsedge, Purple [8, 21]: 0 | Plant response rating, Nutsedge, Purple [8, 22]: 0 | Plant response rating, Nutsedge, Purple [8, 23]: 10 | Plant response rating, Nutsedge, Purple [8, 24]: 35 | Plant response rating, Chickweed ([9]; 16 g ai/ha, scale 0 to 100): 50 | Plant response rating, Chickweed ([9]; 31 g ai/ha, scale 0 to 100): 65 | Plant response rating, Chickweed [9, 26]: 65 | Plant response rating, Foxtail, Green [10, 17]: 5 | Plant response rating, Foxtail, Green [10, 25]: 35 | Plant response rating, Foxtail, Green [10, 19]: 95 | Plant response rating, Foxtail, Green [10, 20]: 50 | Plant response rating, Foxtail, Green [10, 21]: 0 | Plant response rating, Foxtail, Green [10, 22]: 0 | Plant response rating, Foxtail, Green [10, 23]: 0 | Plant response rating, Foxtail, Green [10, 24]: 0 | Plant response rating, Russian Thistle [11, 17]: 20 | Plant response rating, Russian Thistle [11, 20]: 20 | Plant response rating, Russian Thistle [11, 21]: 0 | Plant response rating, Russian Thistle [11, 24]: 100 | Plant response rating, Morningglory [12, 17]: 5 | Plant response rating, Morningglory [12, 25]: 5 | Plant response rating, Morningglory [12, 19]: 50 | Plant response rating, Morningglory [12, 21]: 0 | Plant response rating, Morningglory [12, 22]: 0 | Plant response rating, Morningglory [12, 23]: 20 | Plant response rating, Morningglory [12, 24]: 65 | Plant response rating, Mallow [13, 17]: 35 | Plant response rating, Mallow [13, 25]: 50 | Plant response rating, Mallow [13, 19]: 65 | Plant response rating, Mallow [13, 20]: 65 | Plant response rating, Mallow [13, 21]: 0 | Plant response rating, Mallow [13, 22]: 0 | Plant response rating, Mallow [13, 23]: 65 | Plant response rating, Mallow [13, 24]: 98 | Plant response rating, Sowthistle [14, 17]: 90 | Plant response rating, Sowthistle [14, 25]: 100 | Plant response rating, Sowthistle [14, 19]: 100 | Plant response rating, Sowthistle [14, 20]: 100 | Plant response rating, Sowthistle [14, 21]: 65 | Plant response rating, Sowthistle [14, 22]: 65 | Plant response rating, Sowthistle [14, 24]: 100 | Plant response rating, Johnsongrass [15, 17]: 5 | Plant response rating, Johnsongrass [15, 25]: 15 | Plant response rating, Johnsongrass [15, 19]: 65 | Plant response rating, Johnsongrass [15, 20]: 35 | Plant response rating, Johnsongrass [15, 21]: 0 | Plant response rating, Johnsongrass [15, 22]: 0 | Plant response rating, Johnsongrass [15, 23]: 0 | Plant response rating, Johnsongrass [15, 24]: 75 | Plant response rating, Field Bindweed [16, 17]: 35 | Plant response rating, Field Bindweed [16, 25]: 40 | Plant response rating, Field Bindweed [16, 19]: 65 | Plant response rating, Field Bindweed [16, 20]: 50 | Plant response rating, Field Bindweed [16, 21]: 0 | Plant response rating, Field Bindweed [16, 22]: 0 | Plant response rating, Field Bindweed [16, 23]: 0 | Plant response rating, Field Bindweed [16, 24]: 35
